Values joined by “and” are separate entries in the source; they are usually repeats but may differ in a detail not shown here. Equal values may be shown once. “Also recorded” adds a separate entry of the source. Read-outs that look alike come from different tables or passages of the source.
Assays:
[1] = tested on: Cov434-AMHRII Asc1a5 tumour cells;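 note: control mice received NaCl solution, survival endpoint was euthanasia once tumour volume hit 2000 mm^3 or on ethical grounds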
Text: A solution of NaCl was used as the control.
(§1) The animals were sacrificed when the tumour volumes reached 2000 mm^3 or for ethical reasons. The curves of mean values and median values as well as the statistical analyses were stopped when 20% of the mice in the group were dead.

[2] = tested on: Cov434-AMHRII Asc1a5 tumour cells (a cell line of human ovarian cancer); assay: Anti-tumour activity of 3C23K alone or with paclitaxel in Cov434-AMHRII Asc1a5 xenograft (tumour volume, T/C ratio, statistical analysis); settings: for Individual tumour volume: individual mice;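 for all read-outs here: subcutaneous Cov434-AMHRII Asc1a5 xenografts in female Swiss nude mice, tumour volume from length×width×height/2 in mm^3, randomized D13, dosing from D14, 8 mice per group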
Experimental: Female Swiss nude mice (Harlan Laboratories) were injected subcutaneously (s.c.) with 7.10^6 cells of Cov434-AMHRII Asc1a5 (cell line of human ovarian cancer transfected with cDNA AMHRII) in Matrigel (1:1 ratio) under a volume of 150 μL on day 0 (D0).
The mice were randomized on D13, when the volume of the tumours was between 58 and 150 mm^3, and the treatments began on D14 (8 mice per group).
The tumours were usually measured twice weekly. Tumour volume (TV) was calculated using the following formula, in which the length corresponds to the largest of the tumour diameters, the width corresponds to the smallest of the tumour diameters and the tumour height: TV (mm^3)=(length×width×height)/2.
In addition, for each group, curves of tumour growth were plotted using the calculated mean tumour volumes or the median tumour volumes.
as §1
In one experiment with 8 mice per group, the curves and analyses were stopped when fewer than 7 values per group had been obtained (7 mice alive).
The statistical differences between the different groups were analysed by ANOVA comparison using the Statgraphics centurion XV software.
The ANOVA table breaks down the variance into two components: an inter-group component and an intra-group component. The ratio F is the ratio of the inter-group estimate to the intra-group estimate. When the P value of test F is greater than or equal to 0.05, there is no statistically significant difference between the mean values of the two groups, with a confidence level of 95%. P values less than 0.05 indicate a significant difference between the mean values of the two groups with a confidence level of 95%.
A Kruskal-Wallis test was also carried out. When the P value is greater than or equal to 0.05, there is no statistically significant difference between the median of the two groups, with a confidence level of 95%. P values less than 0.05 indicate a significant difference between the medians of the two groups with a confidence level of 95%.
The treatment is initiated on day 14 after injection.

[3] = D13, contrast vs paclitaxel 15 mg/kg q7d4
[4] = D20, contrast vs paclitaxel 15 mg/kg q7d4
[5] = D24, contrast vs paclitaxel 15 mg/kg q7d4
[6] = D27, contrast vs paclitaxel 15 mg/kg q7d4
[7] = D31, contrast vs paclitaxel 15 mg/kg q7d4
[8] = D35, contrast vs paclitaxel 15 mg/kg q7d4
[9] = D41, contrast vs paclitaxel 15 mg/kg q7d4
[10] = Day 13, randomization, before treatment

3C23K: mutated humanized 12G4 monoclonal antibody binding AMHR-II, produced by the 3C23K clone; light chain SEQ ID NO: 11, heavy chain SEQ ID NO: 13
Survival parameter: logrank test chi-squared ([1]; contrast vs control): 11.15
Survival parameter: logrank test chi-squared ([1]; contrast vs paclitaxel 15 mg/kg q7d4): 12.36
Survival parameter Mean ([1]; group of 8 mice): 70 days
Survival parameter Median ([1]; group of 8 mice): 73 days
Observations: End of experiment TV ([1]; individual mice alive at day 83): 1615 mm3 and 1463 mm3
Observations ([1]; individual mice alive at day 83, end of experiment): End of experiment no
survival parameter ([1]; individual mice, experiment ended on day 83): 51 Days and 55 Days and 62 Days and 69 Days and 76 Days and 83 Days (3×)
Statistical analysis based on the survival parameter (in words) ([1]; mouse, in vivo): significant anti-tumour activity; also recorded: significantly different from that of paclitaxel in monotherapy
ANOVA F-ratio ([2]; D13, contrast vs control): 0.00
Kruskal-Wallis Test ([2]; D13, contrast vs control): 0.00
ANOVA F-ratio [2, 3]: 0.11
Kruskal-Wallis Test [2, 3]: 0.03
ANOVA F-ratio ([2]; D20, contrast vs control): 5.33
Kruskal-Wallis Test ([2]; D20, contrast vs control): 4.44
ANOVA F-ratio [2, 4]: 9.54
Kruskal-Wallis Test [2, 4]: 6.39
Statistical analysis of tumour volume (in words) ([2]; D20 to D41): significant anti-tumour activity; also recorded: significantly different from that of paclitaxel in monotherapy
ANOVA F-ratio ([2]; D24, contrast vs control): 9.83
Kruskal-Wallis Test ([2]; D24, contrast vs control): 4.41
ANOVA F-ratio [2, 5]: 8.53
Kruskal-Wallis Test [2, 5]: 8.70
ANOVA F-ratio ([2]; D27, contrast vs control): 8.21
Kruskal-Wallis Test ([2]; D27, contrast vs control): 4.87
ANOVA F-ratio [2, 6]: 8.92
Kruskal-Wallis Test [2, 6]: 8.66
ANOVA F-ratio ([2]; D31, contrast vs control): 10.00
Kruskal-Wallis Test ([2]; D31, contrast vs control): 4.86
ANOVA F-ratio [2, 7]: 8.01
Kruskal-Wallis Test [2, 7]: 8.66
ANOVA F-ratio ([2]; D35, contrast vs control): 8.26
Kruskal-Wallis Test ([2]; D35, contrast vs control): 5.11
ANOVA F-ratio [2, 8]: 10.47
Kruskal-Wallis Test [2, 8]: 8.65
ANOVA F-ratio ([2]; D41, contrast vs control): 11.82
Kruskal-Wallis Test ([2]; D41, contrast vs control): 5.36
ANOVA F-ratio [2, 9]: 12.64
Kruskal-Wallis Test [2, 9]: 7.71
Mean tumour volume [2, 10]: 92 mm^3
Median tumour volume [2, 10]: 89 mm^3
Individual tumour volume ([2]; Day 13): 144 mm3 and 98 mm3 (2×) and 90 mm3 and 76 mm3 and 73 mm3
Mean tumour volume ([2]; Day 20): 111 mm^3
Median tumour volume ([2]; Day 20): 107 mm^3
Individual tumour volume ([2]; Day 20): 105 mm3 and 135 mm3 and 88 mm3 and 140 mm3 and 150 mm3 and 60 mm3
Mean tumour volume ([2]; Day 24): 97 mm^3
Median tumour volume ([2]; Day 24): 93 mm^3
Individual tumour volume ([2]; Day 24): 158 mm3 and 180 mm3 and 0 mm3 and 102 mm3 and 114 mm3 and 68 mm3
Mean tumour volume ([2]; Day 27): 144 mm^3
Median tumour volume ([2]; Day 27): 129 mm^3
Individual tumour volume ([2]; Day 27): 252 mm3 and 289 mm3 and 0 mm3 and 192 mm3 and 168 mm3 and 72 mm3
Mean tumour volume ([2]; Day 31): 153 mm^3
Median tumour volume ([2]; Day 31): 162 mm^3
Individual tumour volume ([2]; Day 31): 184 mm3 and 404 mm3 and 0 mm3 and 204 mm3 and 198 mm3 and 68 mm3
Mean tumour volume ([2]; Day 35): 310 mm^3
Median tumour volume ([2]; Day 35): 317 mm^3
Individual tumour volume ([2]; Day 35): 366 mm3 and 592 mm3 and 0 mm3 and 488 mm3 and 528 mm3 and 122 mm3
Mean tumour volume ([2]; Day 41): 429 mm^3
Median tumour volume ([2]; Day 41): 467 mm^3
Individual tumour volume ([2]; Day 41): 560 mm3 and 844 mm3 and 0 mm3 and 540 mm3 and 634 mm3 and 293 mm3
Mean tumour volume ([2]; Day 45): 577 mm^3
Median tumour volume ([2]; Day 45): 577 mm^3
Individual tumour volume ([2]; Day 45): 918 mm3 and 1256 mm3 and 0 mm3 and 624 mm3 and 731 mm3 and 392 mm3
Mean tumour volume ([2]; Day 48): 664 mm^3
Median tumour volume ([2]; Day 48): 620 mm^3
Individual tumour volume ([2]; Day 48): 912 mm3 and 1672 mm3 and 0 mm3 and 551 mm3 and 833 mm3 and 381 mm3 and 689 mm3
Mean tumour volume ([2]; Day 51): 832 mm^3
Median tumour volume ([2]; Day 51): 712 mm^3
Individual tumour volume ([2]; Day 51): 1485 mm3 and 2035 mm3 and 0 mm3 and 587 mm3 and 900 mm3 and 462 mm3 and 837 mm3
Individual tumour volume ([2]; Day 55): 2080 mm3 and 0 mm3 and 990 mm3 and 1084 mm3 and 600 mm3 and 1309 mm3
Individual tumour volume ([2]; Day 58): 0 mm3 and 1482 mm3 and 1350 mm3 and 842 mm3 and 1665 mm3
Individual tumour volume ([2]; Day 62): 0 mm3 and 1080 mm3 and 1440 mm3 and 640 mm3 and 2057 mm3
Individual tumour volume ([2]; Day 66): 0 mm3 and 1695 mm3 and 1512 mm3 and 666 mm3
Individual tumour volume ([2]; Day 69): 0 mm3 and 1788 mm3 and 1496 mm3 and 950 mm3
Individual tumour volume ([2]; Day 73): 0 mm3 and 1820 mm3 and 1559 mm3 and 1018 mm3
Individual tumour volume ([2]; Day 76): 0 mm3 and 2296 mm3 and 1238 mm3 and 1140 mm3
Individual tumour volume ([2]; Day 80): 0 mm3 and 1520 mm3 and 1254 mm3
Individual tumour volume ([2]; Day 83): 0 mm3 and 1615 mm3 and 1463 mm3
Anti-tumour activity (in words) ([2]; paclitaxel study): significant anti-tumour activity; also recorded: anti-tumour effect greater than that of paclitaxel
T/C ratio ([2]; relative to control group, Day 13 (before treatment)): 95%
T/C ratio ([2]; relative to control group, Day 20): 57%
T/C ratio ([2]; relative to control group, Day 24): 28%
T/C ratio ([2]; relative to control group, Day 27): 25%
T/C ratio ([2]; relative to control group, Day 31): 21%
T/C ratio ([2]; relative to control group, Day 35): 27%
T/C ratio ([2]; relative to control group, Day 41): 29%
T/C ratio ([2]; relative to control, after D20 up to D41 (b191 prints D40)): less than 29%
T/C ratio ([2]; relative to paclitaxel group, Day 13 (before treatment)): 98%
T/C ratio ([2]; relative to paclitaxel group, Day 20): 47%
T/C ratio ([2]; relative to paclitaxel group, Day 24): 35%
T/C ratio ([2]; relative to paclitaxel group, Day 27): 38%
T/C ratio ([2]; relative to paclitaxel group, Day 31): 39%
T/C ratio ([2]; relative to paclitaxel group, Day 35): 32%
